According to PubChem BioAssay (NCI):
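In this assay, cells in 96-well plates receive the compound at five concentrations for 48 hours. Endpoints are linearly interpolated between the surrounding concentrations. GI50: concentration for 50% inhibition of growth. At the TGI there is no net growth.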

Tests used:
Assay in all cases: inhibition of tumour cell growth, NCI panel, 48 h
[1] = tested on: UACC-257 melanoma
[2] = tested on: M14 melanoma
[3] = tested on: NCI/ADR-RES ovarian
[4] = tested on: HCT-116 colon
[5] = tested on: OVCAR-5 ovarian
[6] = tested on: A498 renal
[7] = tested on: SNB-75 CNS
[8] = tested on: HCC-2998 colon
[9] = tested on: SK-MEL-28 melanoma
[10] = tested on: OVCAR-8 ovarian
[11] = tested on: SF-539 CNS
[12] = tested on: SR leukemia
[13] = tested on: A549 NSCLC
[14] = tested on: NCI-H226 lung
[15] = tested on: HOP-62 NSCLC
[16] = tested on: COLO 205 colon
[17] = tested on: PC-3 prostate
[18] = tested on: HCT-15 colon
[19] = tested on: SK-MEL-5 melanoma
[20] = tested on: MOLT-4 leukemia
[21] = tested on: LOX IMVI melanoma
[22] = tested on: MDA-MB-435
[23] = tested on: RXF 393 renal
[24] = tested on: OVCAR-4 ovarian
[25] = tested on: BT-549 breast
[26] = tested on: CAKI-1 renal
[27] = tested on: HOP-92 NSCLC
[28] = tested on: SK-OV-3 ovarian
[29] = tested on: T-47D breast
[30] = tested on: SNB-19 CNS
[31] = tested on: SN12C renal
[32] = tested on: UACC-62 melanoma
[33] = tested on: SF-268 CNS
[34] = tested on: OVCAR-3 ovarian
[35] = tested on: MCF7 breast
[36] = tested on: K-562 leukemia
[37] = tested on: 786-0 renal
[38] = tested on: HS 578T breast
[39] = tested on: NCI-H23 lung
[40] = tested on: CCRF-CEM leukemia
[41] = tested on: SW-620 colon
[42] = tested on: KM12 colon
[43] = tested on: SK-MEL-2 melanoma
[44] = tested on: RPMI-8226 leukemia
[45] = tested on: SF-295 CNS
[46] = tested on: HL-60(TB) leukemia
[47] = tested on: NCI-H460 lung
[48] = tested on: MALME-3M melanoma
[49] = tested on: EKVX NSCLC
[50] = tested on: DU-145 prostate
[51] = tested on: ACHN renal
[52] = tested on: TK-10 renal
[53] = tested on: HT29 colon
[54] = tested on: IGROV1 ovarian
[55] = tested on: MDA-MB-468 breast
[56] = tested on: U251 CNS
[57] = tested on: UO-31 renal
[58] = tested on: NCI-H522 lung
[59] = tested on: MDA-MB-231 breast

## O=C(Cn1c(-c2ccccc2)nc2ccccc21)N=Nc1c(O)[nH]c2ccc(Br)cc12
[1]
  GI50: 15.2 µM
  TGI: 31.7 µM
[2]
  GI50: 18.8 µM
  TGI: 52.3 µM
[3]
  GI50: 15.4 µM
  TGI: 33.8 µM
[4]
  GI50: 18.2 µM
  TGI: 45.8 µM
[5]
  GI50: 22.9 µM
  TGI: 81.4 µM
[6]
  GI50: 16 µM
  TGI: 31.1 µM
[7]
  GI50: 9.46 µM
  TGI: 23.6 µM
[8]
  GI50: 14.8 µM
  TGI: 31.3 µM
[9]
  GI50: 17.8 µM
  TGI: 36.7 µM
[10]
  GI50: 14.4 µM
  TGI: 31.1 µM
[11]
  GI50: 14.4 µM
  TGI: 29.7 µM
[12]
  GI50: 6.04 µM
  TGI: > 100 µM
[13]
  GI50: 14.7 µM
  TGI: 34.8 µM
[14]
  GI50: 11.1 µM
  TGI: 28.3 µM
[15]
  GI50: 14.6 µM
  TGI: 33 µM
[16]
  GI50: 18.9 µM
  TGI: 46.2 µM
[17]
  GI50: 15 µM
  TGI: 43.2 µM
[18]
  GI50: 12 µM
  TGI: 38.9 µM
[19]
  GI50: 13.9 µM
  TGI: 30.9 µM
[20]
  GI50: 17.6 µM
  TGI: > 100 µM
[21]
  GI50: 15 µM
  TGI: 31.7 µM
[22]
  GI50: 5.9 µM
  TGI: 21.3 µM
[23]
  GI50: 10.3 µM
  TGI: 23.9 µM
[24]
  GI50: 15.9 µM
  TGI: 36.5 µM
[25]
  GI50: 16 µM
  TGI: 36.9 µM
[26]
  GI50: 11.8 µM
  TGI: 25.7 µM
[27]
  GI50: 15.4 µM
  TGI: 34.2 µM
[28]
  GI50: 16.6 µM
  TGI: 38.4 µM
[29]
  GI50: 11.5 µM
  TGI: 33.8 µM
[30]
  GI50: 17.3 µM
  TGI: 40.8 µM
[31]
  GI50: 16.2 µM
  TGI: 41.8 µM
[32]
  GI50: 12.1 µM
  TGI: 25.9 µM
[33]
  GI50: 16.2 µM
  TGI: 38.3 µM
[34]
  GI50: 14.3 µM
  TGI: 30.3 µM
[35]
  GI50: 5.87 µM
  TGI: 25.6 µM
[36]
  GI50: 9.48 µM
  TGI: > 100 µM
[37]
  GI50: 17.5 µM
  TGI: 34.7 µM
[38]
  GI50: 14.9 µM
  TGI: 47.3 µM
[39]
  GI50: 16.3 µM
  TGI: 36.5 µM
[40]
  GI50: 34.8 µM
  TGI: > 100 µM
[41]
  GI50: 18.1 µM
  TGI: 52.9 µM
[42]
  GI50: 14.8 µM
  TGI: 52.9 µM
[43]
  GI50: 17 µM
  TGI: 42.9 µM
[44]
  GI50: 35.6 µM
  TGI: > 100 µM
[45]
  GI50: 12.7 µM
  TGI: 28 µM
[46]
  GI50: 25.5 µM
  TGI: > 100 µM
[47]
  GI50: 16.8 µM
  TGI: 35 µM
[48]
  GI50: 12.3 µM
  TGI: 27.1 µM
[49]
  GI50: 11.3 µM
  TGI: 34.1 µM
[50]
  GI50: 19.6 µM
  TGI: 42.3 µM
[51]
  GI50: 15.6 µM
  TGI: 34.1 µM
[52]
  GI50: 21 µM
  TGI: 40.3 µM
[53]
  GI50: 14.3 µM
  TGI: 30.4 µM
[54]
  GI50: 12 µM
  TGI: 29.7 µM
[55]
  GI50: 2.54 µM
  TGI: 9.55 µM
[56]
  GI50: 16.2 µM
  TGI: 31.7 µM
[57]
  GI50: 10 µM
  TGI: 26.8 µM
[58]
  GI50: 7.31 µM
  TGI: 22.4 µM
[59]
  GI50: 12 µM
  TGI: 27.9 µM
